From ChEMBL document CHEMBL3769388, “Optimization of a Dicarboxylic Series for in Vivo Inhibition of Citrate Transport by the Solute Carrier 13 (SLC13) Family” (J Med Chem, 2016)
Active and inactive are the calls of the source. No cut-off for these calls is given here.

Tests used:
[1] = molecular target: T1, Na(+)/citrate cotransporter (Homo sapiens, UniProt Q86YT5); experiment: Inhibition of NaCT (unknown origin) expressed in HEK293 cells assessed as inhibition of [14C]citrate uptake by microbeta plate reader analysis; assay type: cell-based; conditions: read-out: IC50
[2] = molecular target: T1, Na(+)/citrate cotransporter; experiment: Inhibition of NaCT in human hepatocytes assessed as [14C]-citrate uptake after 30 mins by scintillation counting method; assay type: cell-based, Hepatocyte
[3] = molecular target: T2, Solute carrier family 13 member 2 (Homo sapiens, UniProt Q13183); experiment: Inhibition of NaDC1 (unknown origin) expressed in HEK293 cells assessed as inhibition of [14C]citrate uptake by microbeta plate reader analysis; assay type: cell-based
T2 sequence (Q13183 whole entry): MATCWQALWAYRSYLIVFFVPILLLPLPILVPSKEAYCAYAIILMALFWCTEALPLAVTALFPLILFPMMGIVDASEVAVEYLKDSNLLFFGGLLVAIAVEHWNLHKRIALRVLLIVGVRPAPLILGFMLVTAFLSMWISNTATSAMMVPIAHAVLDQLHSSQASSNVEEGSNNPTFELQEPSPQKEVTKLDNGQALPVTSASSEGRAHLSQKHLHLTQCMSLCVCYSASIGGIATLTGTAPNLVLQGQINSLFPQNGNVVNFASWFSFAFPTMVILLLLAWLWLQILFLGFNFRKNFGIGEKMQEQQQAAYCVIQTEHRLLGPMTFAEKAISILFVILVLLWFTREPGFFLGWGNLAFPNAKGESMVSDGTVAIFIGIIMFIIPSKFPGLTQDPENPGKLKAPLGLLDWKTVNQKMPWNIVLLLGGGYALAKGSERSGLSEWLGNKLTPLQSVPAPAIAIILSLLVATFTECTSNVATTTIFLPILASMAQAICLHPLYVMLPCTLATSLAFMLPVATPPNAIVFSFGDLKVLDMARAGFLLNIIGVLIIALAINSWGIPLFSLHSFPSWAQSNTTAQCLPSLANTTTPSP

[4] = molecular target: Na(+)/citrate cotransporter (Mus musculus, UniProt Q67BT3); experiment: Inhibition of NaCT in mouse hepatocytes assessed as [14C]-citrate uptake after 30 mins by scintillation counting method; assay type: cell-based, Hepatocyte
[5] = Clearance in rat hepatocytes assessed per 10^6 cells; assay type: ADME, cell-based, Hepatocyte; conditions: read-out: CLH
Rattus norvegicus [6] = experiment: Decrease in [14C]citrate uptake in iv dosed Wistar Han rat testis measured after 185 to 200 mins by scintillation counting method; assay type: functional, organism-based
[7] = Fraction unbound in Wistar Han rat by equilibrium dialysis method; assay type: ADME
[8] = Total plasma clearance in Wistar Han rat at 1 mg/kg, iv by LC-MS/MS analysis; assay type: ADME, organism-based
[9] = Half life in Wistar Han rat at 1 mg/kg, iv by LC-MS/MS analysis; assay type: ADME, organism-based; conditions: in vivo
Mus musculus [10] = experiment: Decrease in fasting glucose levels in DIO C57/B6 mouse model in basal portion at 44 mg/kg/hr for 90 mins; assay type: functional, organism-based
Mus musculus [11] = experiment: Effect on glucose infusion rate in DIO C57/B6 mouse during hyperinsulinemic-euglycemic clamp at 44 mg/kg/hr for 90 mins; assay type: functional, organism-based
Rattus norvegicus [12] = organism: Rattus norvegicus; experiment: Increase in […][13C]-citrate levels in rat liver measured over 140 to 150 mins by UPLC-MS/MS analysis; assay type: functional, organism-based
Mus musculus [13] = experiment: Increase in urinary citrate output in C57BL/6J mouse at 250 mg/kg, po measured after 7 hrs by UPLC-MS/MS analysis; assay type: functional, Urine
[14] = molecular target: Acetylcholinesterase (Homo sapiens) (UniProt P22303); experiment: Inhibition of ACHE (unknown origin)
[15] = molecular target: ATP-citrate synthase (Homo sapiens) (UniProt P53396); experiment: Inhibition of ACL (unknown origin) upto 30 uM
Cytochrome P450 2C8 = Cytochrome P450 2C8 (Homo sapiens, UniProt P10632); experiment: Inhibition of CYP2C8 (unknown origin); assay type: ADME
Cytochrome P450 2C9 = Cytochrome P450 2C9 (Homo sapiens, UniProt P11712); experiment: Inhibition of CYP2C9 (unknown origin); assay type: ADME
Cytochrome P450 2D6 = Cytochrome P450 2D6 (Homo sapiens, UniProt P10635); experiment: Inhibition of CYP2D6 (unknown origin); assay type: ADME
[16] = molecular target: Amine oxidase [flavin-containing] A (Homo sapiens, UniProt P21397); experiment: Inhibition of MAOA (unknown origin)
[17] = molecular target: 3',5'-cyclic-AMP phosphodiesterase 4D (Homo sapiens) (UniProt Q08499); experiment: Inhibition of PDE4D3 (unknown origin)
[18] = molecular target: High affinity choline transporter 1 (Homo sapiens) (UniProt Q9GZV3); experiment: Inhibition of choline transporter 1 (unknown origin)
[19] = molecular target: Sodium-dependent phosphate transport protein 1 (Homo sapiens) (UniProt Q14916); experiment: Inhibition of NaPiA1 (unknown origin)
[20] = molecular target: Alpha-1A adrenergic receptor (Homo sapiens) (UniProt P35348); experiment: Inhibition of ADRA1A (unknown origin)
[21] = molecular target: Alpha-2A adrenergic receptor (Homo sapiens) (UniProt P08913); experiment: Inhibition of ADRA2A (unknown origin)
[22] = molecular target: Alpha-2B adrenergic receptor (Homo sapiens) (UniProt P18089); experiment: Inhibition of ADRA2B (unknown origin)
[23] = molecular target: Beta-2 adrenergic receptor (Homo sapiens) (UniProt P07550); experiment: Inhibition of ADRB2 (unknown origin)
[24] = molecular target: Androgen receptor (Homo sapiens) (UniProt P10275); experiment: Inhibition of Androgen receptor (unknown origin)
[25] = molecular target: Type-1 angiotensin II receptor (Homo sapiens) (UniProt P30556); experiment: Inhibition of AGTR1 (unknown origin)
[26] = molecular target: Vasopressin V1a receptor (Homo sapiens) (UniProt P37288); experiment: Inhibition of AVPR1A (unknown origin)
[27] = molecular target: Gastrin/cholecystokinin type B receptor (Homo sapiens) (UniProt P32239); experiment: Inhibition of CCKBR (unknown origin)
[28] = molecular target: Epidermal growth factor receptor (Homo sapiens) (UniProt P00533); experiment: Inhibition of EGFR (unknown origin)
[29] = molecular target: Gamma-aminobutyric acid receptor subunit alpha-1 (Homo sapiens) (UniProt P14867); experiment: Inhibition of GABRA1 (unknown origin)
[30] = molecular target: Glucocorticoid receptor (Homo sapiens) (UniProt P04150); experiment: Inhibition of GR (unknown origin)
[31] = molecular target: Histamine H2 receptor (Homo sapiens) (UniProt P25021); experiment: Inhibition of H2 (unknown origin)
[32] = molecular target: Muscarinic acetylcholine receptor M2 (Homo sapiens) (UniProt P08172); experiment: Inhibition of M2 (unknown origin)
[33] = molecular target: Substance-P receptor (Homo sapiens) (UniProt P25103); experiment: Inhibition of NK1 receptor (unknown origin)
[34] = molecular target: 5-hydroxytryptamine receptor 1A (Homo sapiens) (UniProt P08908); experiment: Inhibition of 5HT1A (unknown origin)
[35] = molecular target: 5-hydroxytryptamine receptor 1B (Homo sapiens) (UniProt P28222); experiment: Inhibition of 5HT1B (unknown origin)
[36] = molecular target: 5-hydroxytryptamine receptor 2A (Homo sapiens) (UniProt P28223); experiment: Inhibition of 5HT2A receptor (unknown origin)
[37] = molecular target: 5-hydroxytryptamine receptor 2B (Homo sapiens) (UniProt P41595); experiment: Inhibition of 5HT2B receptor (unknown origin)

T1 sequence (Q86YT5 whole entry): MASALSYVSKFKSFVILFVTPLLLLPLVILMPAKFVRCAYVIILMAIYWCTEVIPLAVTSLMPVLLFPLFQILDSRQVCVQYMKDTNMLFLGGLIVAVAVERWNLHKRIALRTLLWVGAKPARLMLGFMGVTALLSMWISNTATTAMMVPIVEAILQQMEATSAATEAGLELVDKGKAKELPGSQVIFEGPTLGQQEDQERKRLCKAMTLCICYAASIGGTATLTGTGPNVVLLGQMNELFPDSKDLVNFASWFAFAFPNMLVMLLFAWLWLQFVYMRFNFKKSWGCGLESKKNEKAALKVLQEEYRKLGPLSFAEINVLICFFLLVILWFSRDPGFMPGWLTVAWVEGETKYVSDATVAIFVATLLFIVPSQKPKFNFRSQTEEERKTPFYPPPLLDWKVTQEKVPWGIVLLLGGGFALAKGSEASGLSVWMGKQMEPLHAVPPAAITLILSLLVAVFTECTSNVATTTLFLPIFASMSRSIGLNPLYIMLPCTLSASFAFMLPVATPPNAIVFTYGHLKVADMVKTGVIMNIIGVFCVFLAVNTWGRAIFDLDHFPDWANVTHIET
Sequence of Gamma-aminobutyric acid receptor subunit alpha-1 (Homo sapiens) (P14867 whole entry): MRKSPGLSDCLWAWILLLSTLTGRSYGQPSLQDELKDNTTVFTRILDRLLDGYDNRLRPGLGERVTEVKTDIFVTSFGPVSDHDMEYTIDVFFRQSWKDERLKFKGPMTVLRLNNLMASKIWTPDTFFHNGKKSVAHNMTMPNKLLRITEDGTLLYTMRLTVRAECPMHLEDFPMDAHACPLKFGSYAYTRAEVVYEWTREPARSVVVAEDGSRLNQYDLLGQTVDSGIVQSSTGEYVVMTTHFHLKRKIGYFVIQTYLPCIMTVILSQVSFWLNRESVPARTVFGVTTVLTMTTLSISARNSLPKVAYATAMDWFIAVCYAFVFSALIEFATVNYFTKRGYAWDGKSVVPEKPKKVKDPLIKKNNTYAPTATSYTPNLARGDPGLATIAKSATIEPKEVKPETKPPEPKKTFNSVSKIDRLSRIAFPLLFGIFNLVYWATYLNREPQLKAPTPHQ
Sequence of ATP-citrate synthase (Homo sapiens) (P53396 whole entry): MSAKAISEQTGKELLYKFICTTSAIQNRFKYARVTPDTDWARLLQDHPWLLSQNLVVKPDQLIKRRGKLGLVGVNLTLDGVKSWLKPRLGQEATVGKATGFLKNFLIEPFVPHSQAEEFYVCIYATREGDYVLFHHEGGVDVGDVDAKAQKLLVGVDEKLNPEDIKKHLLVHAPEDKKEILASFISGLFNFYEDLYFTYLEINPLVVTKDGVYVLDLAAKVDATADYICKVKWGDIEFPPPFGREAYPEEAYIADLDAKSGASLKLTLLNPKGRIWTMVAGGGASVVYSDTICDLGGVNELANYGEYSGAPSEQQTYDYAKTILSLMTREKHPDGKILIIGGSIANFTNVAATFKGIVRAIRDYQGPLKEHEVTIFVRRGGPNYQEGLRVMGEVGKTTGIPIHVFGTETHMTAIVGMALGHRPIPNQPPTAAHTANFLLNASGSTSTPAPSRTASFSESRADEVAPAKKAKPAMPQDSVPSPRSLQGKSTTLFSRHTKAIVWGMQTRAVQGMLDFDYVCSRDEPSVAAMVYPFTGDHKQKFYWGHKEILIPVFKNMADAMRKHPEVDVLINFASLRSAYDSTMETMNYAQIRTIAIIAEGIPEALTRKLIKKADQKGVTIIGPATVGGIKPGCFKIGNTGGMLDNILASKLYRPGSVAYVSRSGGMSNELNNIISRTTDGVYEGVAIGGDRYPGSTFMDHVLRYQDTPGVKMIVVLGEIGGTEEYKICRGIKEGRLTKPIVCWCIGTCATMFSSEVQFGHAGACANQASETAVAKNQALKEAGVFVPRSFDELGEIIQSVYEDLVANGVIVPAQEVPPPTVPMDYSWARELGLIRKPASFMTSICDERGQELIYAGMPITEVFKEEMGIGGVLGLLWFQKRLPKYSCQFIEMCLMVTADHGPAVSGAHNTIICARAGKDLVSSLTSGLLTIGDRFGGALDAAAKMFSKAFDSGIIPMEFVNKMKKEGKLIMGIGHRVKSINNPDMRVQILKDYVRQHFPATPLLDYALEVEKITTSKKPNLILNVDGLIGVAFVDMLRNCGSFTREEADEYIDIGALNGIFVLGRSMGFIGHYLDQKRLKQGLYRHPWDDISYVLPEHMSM
Sequence of Cytochrome P450 2D6 (P10635 whole entry): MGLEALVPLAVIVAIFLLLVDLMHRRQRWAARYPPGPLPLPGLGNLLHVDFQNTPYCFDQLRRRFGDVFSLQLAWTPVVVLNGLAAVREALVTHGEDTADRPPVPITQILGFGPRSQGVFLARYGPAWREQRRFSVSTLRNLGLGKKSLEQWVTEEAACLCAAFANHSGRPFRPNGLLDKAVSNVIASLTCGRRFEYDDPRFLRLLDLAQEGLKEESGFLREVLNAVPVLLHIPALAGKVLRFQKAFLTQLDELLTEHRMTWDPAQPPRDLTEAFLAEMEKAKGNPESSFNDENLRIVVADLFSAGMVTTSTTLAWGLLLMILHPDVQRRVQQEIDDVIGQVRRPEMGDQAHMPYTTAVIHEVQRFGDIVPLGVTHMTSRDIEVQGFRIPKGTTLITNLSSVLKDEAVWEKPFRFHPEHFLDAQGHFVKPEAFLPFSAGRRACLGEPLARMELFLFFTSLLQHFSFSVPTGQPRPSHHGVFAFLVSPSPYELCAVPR
Sequence of Acetylcholinesterase (Homo sapiens) (P22303 whole entry): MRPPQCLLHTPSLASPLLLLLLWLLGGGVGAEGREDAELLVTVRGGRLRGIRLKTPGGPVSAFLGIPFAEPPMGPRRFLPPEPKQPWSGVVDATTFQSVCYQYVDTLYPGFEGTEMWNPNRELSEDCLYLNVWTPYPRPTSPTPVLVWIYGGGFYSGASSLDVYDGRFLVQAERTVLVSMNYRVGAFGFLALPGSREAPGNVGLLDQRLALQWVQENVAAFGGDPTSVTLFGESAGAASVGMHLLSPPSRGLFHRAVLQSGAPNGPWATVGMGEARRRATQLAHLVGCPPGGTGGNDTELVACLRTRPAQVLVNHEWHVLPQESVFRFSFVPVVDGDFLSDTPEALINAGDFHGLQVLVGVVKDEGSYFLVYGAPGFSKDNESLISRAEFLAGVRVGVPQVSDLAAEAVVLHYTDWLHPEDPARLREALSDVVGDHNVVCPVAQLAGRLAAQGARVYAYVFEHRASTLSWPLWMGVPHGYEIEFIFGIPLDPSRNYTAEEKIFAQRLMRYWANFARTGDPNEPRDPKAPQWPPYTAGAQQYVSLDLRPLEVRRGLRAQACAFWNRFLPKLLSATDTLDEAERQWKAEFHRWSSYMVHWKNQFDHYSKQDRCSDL
Sequence of Amine oxidase [flavin-containing] A (P21397 whole entry): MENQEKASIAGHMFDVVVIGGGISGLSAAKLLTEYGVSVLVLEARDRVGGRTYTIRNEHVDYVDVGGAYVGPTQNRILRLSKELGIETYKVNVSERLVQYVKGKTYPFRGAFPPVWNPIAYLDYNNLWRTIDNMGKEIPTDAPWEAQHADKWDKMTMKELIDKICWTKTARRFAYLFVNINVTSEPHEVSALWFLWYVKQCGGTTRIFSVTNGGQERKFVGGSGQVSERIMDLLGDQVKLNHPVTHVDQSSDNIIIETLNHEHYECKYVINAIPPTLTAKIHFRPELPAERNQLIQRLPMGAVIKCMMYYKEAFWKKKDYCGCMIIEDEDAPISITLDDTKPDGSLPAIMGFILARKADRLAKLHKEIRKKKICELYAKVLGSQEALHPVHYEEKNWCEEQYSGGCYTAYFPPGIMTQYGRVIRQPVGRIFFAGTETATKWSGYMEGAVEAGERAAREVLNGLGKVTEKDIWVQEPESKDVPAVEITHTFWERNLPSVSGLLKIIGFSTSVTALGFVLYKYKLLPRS
Sequence of Alpha-1A adrenergic receptor (Homo sapiens) (P35348 whole entry): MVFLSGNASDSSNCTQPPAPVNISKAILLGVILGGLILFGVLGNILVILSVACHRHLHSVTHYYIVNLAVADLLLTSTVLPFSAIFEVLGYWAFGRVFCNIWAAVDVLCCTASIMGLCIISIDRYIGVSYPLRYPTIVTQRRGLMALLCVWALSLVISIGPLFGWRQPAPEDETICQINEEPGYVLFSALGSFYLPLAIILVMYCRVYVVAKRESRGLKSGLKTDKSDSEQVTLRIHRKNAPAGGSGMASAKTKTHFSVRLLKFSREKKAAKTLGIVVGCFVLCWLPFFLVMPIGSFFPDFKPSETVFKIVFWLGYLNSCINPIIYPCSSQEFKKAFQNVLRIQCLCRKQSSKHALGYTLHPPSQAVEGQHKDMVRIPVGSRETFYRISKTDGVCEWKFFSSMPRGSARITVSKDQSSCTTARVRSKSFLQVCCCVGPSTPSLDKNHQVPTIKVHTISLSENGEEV
Sequence of Vasopressin V1a receptor (Homo sapiens) (P37288 whole entry, looked up): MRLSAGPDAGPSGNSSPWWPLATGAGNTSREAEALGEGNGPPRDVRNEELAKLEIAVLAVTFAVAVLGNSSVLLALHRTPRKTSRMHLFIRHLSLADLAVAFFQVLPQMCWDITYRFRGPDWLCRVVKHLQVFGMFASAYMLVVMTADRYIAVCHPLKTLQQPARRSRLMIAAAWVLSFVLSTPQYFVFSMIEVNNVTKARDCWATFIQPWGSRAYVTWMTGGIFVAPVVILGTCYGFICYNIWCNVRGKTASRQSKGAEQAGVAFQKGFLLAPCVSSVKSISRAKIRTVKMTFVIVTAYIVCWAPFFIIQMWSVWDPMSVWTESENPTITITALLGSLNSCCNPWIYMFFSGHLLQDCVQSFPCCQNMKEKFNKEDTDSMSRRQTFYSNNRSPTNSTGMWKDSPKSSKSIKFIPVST
Sequence of Type-1 angiotensin II receptor (Homo sapiens) (P30556 whole entry): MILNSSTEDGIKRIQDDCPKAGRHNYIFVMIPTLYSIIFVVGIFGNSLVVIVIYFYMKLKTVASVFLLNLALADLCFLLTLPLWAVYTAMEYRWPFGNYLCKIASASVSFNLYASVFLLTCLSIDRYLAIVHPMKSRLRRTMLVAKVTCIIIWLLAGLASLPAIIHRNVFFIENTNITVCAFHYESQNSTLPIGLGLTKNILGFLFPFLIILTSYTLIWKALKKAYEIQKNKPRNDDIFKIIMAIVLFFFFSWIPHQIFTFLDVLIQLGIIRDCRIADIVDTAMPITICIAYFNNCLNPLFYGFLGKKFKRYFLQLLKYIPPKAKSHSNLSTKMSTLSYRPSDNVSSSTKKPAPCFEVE

`COc1ncc(C)cc1CC[C@@](O)(CC(=O)O)C(=O)O` showed an IC50 [1] of 510 nM, an IC50 [2] of 740 nM and an IC50 ([3]; read-out: IC50) of 13200 nM. For the same compound, the IC50 ([3]; read-out: pIC50 (converted)) was 10000 nM, the IC50 [4] was 210 nM and the hepatocyte CLint [5] was < 6 µL/min/1e6 cells. The IC50 (Rattus norvegicus [6]) was 1000 nM, the fraction unbound [7] was 0.135 and the clearance [8] was 15.8 mL/min/kg. The half-life [9] was 1.7 h, the inhibition (Mus musculus [10]) was “Active” and the Activity (Mus musculus [11]) was “inactive”. For the same compound, the Activity (Rattus norvegicus [12]) was “Active”, the “fold change (FC)” value (Mus musculus [13]) was 230 and the inhibition [14] was “inactive”. For the same compound, the inhibition [15] was “inactive”, the “inhibition (INH)” value (Cytochrome P450 2C8) was “Not Active” and the “inhibition (INH)” value (Cytochrome P450 2C9) was “Not Active”. The “inhibition (INH)” value (Cytochrome P450 2D6) was “Not Active”, the “inhibition (INH)” value [16] was “Not Active” and the inhibition [17] was “inactive”. The inhibition [18] was “inactive”, the inhibition [19] was “inactive” and the inhibition [20] was “inactive”. The inhibition [21] was “inactive”, the inhibition [22] was “inactive” and the inhibition [23] was “inactive”. The inhibition [24] was “inactive”, the inhibition [25] was “inactive” and the inhibition [26] was “inactive”. The inhibition [27] was “inactive”, the inhibition [28] was “inactive” and the inhibition [29] was “inactive”. For the same compound, the inhibition [30] was “inactive”, the inhibition [31] was “inactive” and the inhibition [32] was “inactive”. The inhibition [33] was “inactive”, the inhibition [34] was “inactive” and the inhibition [35] was “inactive”. For the same compound, the inhibition [36] was “inactive” and the inhibition [37] was “inactive”.
